Species: Rattus norvegicus
Test: Open TG-GATES - Regimen: Single
Format: toxicity, organism-based, Sprague-Dawley
Parameters: regimen Single, gender Male, age 6 weeks
Settings: in vivo, po, 100 mg/kg, route gavage, dose level Low; for APTT / Bas / Eos / Fbg / Hb / Ht / Lym / MCH / MCHC / MCV / Mono / Neu / PT / Plat / RBC / Ret / WBC: tissue Blood; for KIDNEY_L / KIDNEY_R / KIDNEY_TOTAL: tissue Kidney; for LIVER: tissue Liver; for A/G / ALP / ALT / AST / BUN / CRE / Ca / Cl / DBIL / GLC / IP / K / LDH / Na / PL / RALB / TBIL / TC / TG / TP / gamma-GTP: tissue Plasma

## C[C@H]1O[C@H](O[C@H]2[C@H](O)[C@@H](O)[C@@H](O[C@H]3[C@H](O)[C@@H](O)C(O)O[C@@H]3CO)O[C@@H]2CO)[C@H](O)[C@@H](O)[C@@H]1N[C@H]1C=C(CO)[C@@H](O)[C@H](O)[C@H]1O (some centres not stated) [ACARBOSE]
3 h
  TERMINAL_BW: 197.7 g
  APTT: 16.7 s
  Bas: 0.2%
  Eos: 0.8%
  Fbg: 274.6 mg/dL
  Hb: 13.5 g/dL
  Ht: 41.3%
  Lym: 78.4%
  MCH: 21.1 pg
  MCHC: 32.6%
  MCV: 64.8 fL
  Mono: 2%
  Neu: 17.8%
  PT: 13.6 s
  Plat: 118.3 x10_4/uL
  RBC: 639 x10_4/ul
  Ret: 8.2%
  WBC: 89.6 x10_2/uL
  KIDNEY_L: 0.9 g
  KIDNEY_R: 0.9 g
  KIDNEY_TOTAL: 1.8 g
  LIVER: 8.5 g
  A/G: 0.9
  ALP: 1409.6 IU/L
  ALT: 39.2 IU/L
  AST: 77.6 IU/L
  BUN: 10.4 mg/dL
  CRE: 0.2 mg/dL
  Ca: 10.7 mg/dL
  Cl: 104.6 meq/L
  DBIL: 0.004 mg/dL
  GLC: 172.2 mg/dL
  IP: 9.9 mg/dL
  K: 3.8 meq/L
  LDH: 60 IU/L
  Na: 141.2 meq/L
  PL: 136.4 mg/dL
  RALB: 2.5 g/dL
  TBIL: 0.062 mg/dL
  TC: 75.4 mg/dL
  TG: 39.2 mg/dL
  TP: 5.1 g/dL
  gamma-GTP: 1 IU/L
6 h
  TERMINAL_BW: 198.1 g
  APTT: 16 s
  Bas: 0%
  Eos: 1%
  Fbg: 307.2 mg/dL
  Hb: 13.4 g/dL
  Ht: 41.5%
  Lym: 78.2%
  MCH: 21 pg
  MCHC: 32.3%
  MCV: 65.1 fL
  Mono: 2.2%
  Neu: 17.8%
  PT: 13.3 s
  Plat: 117.7 x10_4/uL
  RBC: 636.8 x10_4/ul
  Ret: 8.8%
  WBC: 81.3 x10_2/uL
  KIDNEY_L: 0.9 g
  KIDNEY_R: 0.9 g
  KIDNEY_TOTAL: 1.9 g
  LIVER: 8.3 g
  A/G: 0.9
  ALP: 1322 IU/L
  ALT: 34.6 IU/L
  AST: 67.8 IU/L
  BUN: 8.4 mg/dL
  CRE: 0.2 mg/dL
  Ca: 10.8 mg/dL
  Cl: 104.2 meq/L
  DBIL: 0.002 mg/dL
  GLC: 168.2 mg/dL
  IP: 10.2 mg/dL
  K: 3.8 meq/L
  LDH: 58.4 IU/L
  Na: 141 meq/L
  PL: 133.8 mg/dL
  RALB: 2.5 g/dL
  TBIL: 0.062 mg/dL
  TC: 77.2 mg/dL
  TG: 31 mg/dL
  TP: 5.2 g/dL
  gamma-GTP: 1 IU/L
9 h
  TERMINAL_BW: 195.5 g
  APTT: 16.9 s
  Bas: 0%
  Eos: 0.8%
  Fbg: 303.8 mg/dL
  Hb: 13 g/dL
  Ht: 40.5%
  Lym: 77.4%
  MCH: 20.6 pg
  MCHC: 32.2%
  MCV: 63.9 fL
  Mono: 2.6%
  Neu: 18.4%
  PT: 13.4 s
  Plat: 124.4 x10_4/uL
  RBC: 634.4 x10_4/ul
  Ret: 8.3%
  WBC: 71.6 x10_2/uL
  KIDNEY_L: 0.9 g
  KIDNEY_R: 0.9 g
  KIDNEY_TOTAL: 1.8 g
  LIVER: 7.9 g
  A/G: 0.9
  ALP: 1274 IU/L
  ALT: 35.8 IU/L
  AST: 68.4 IU/L
  BUN: 8 mg/dL
  CRE: 0.2 mg/dL
  Ca: 10.6 mg/dL
  Cl: 105 meq/L
  DBIL: 0 mg/dL
  GLC: 178.2 mg/dL
  IP: 10 mg/dL
  K: 3.9 meq/L
  LDH: 64.2 IU/L
  Na: 141.6 meq/L
  PL: 150.4 mg/dL
  RALB: 2.5 g/dL
  TBIL: 0.058 mg/dL
  TC: 85.4 mg/dL
  TG: 61.6 mg/dL
  TP: 5.3 g/dL
  gamma-GTP: 1 IU/L
24 h
  TERMINAL_BW: 213.3 g
  APTT: 17.6 s
  Bas: 0%
  Eos: 1%
  Fbg: 286.2 mg/dL
  Hb: 13.4 g/dL
  Ht: 41%
  Lym: 76.4%
  MCH: 20.9 pg
  MCHC: 32.7%
  MCV: 63.9 fL
  Mono: 2.6%
  Neu: 19.2%
  PT: 13 s
  Plat: 114.1 x10_4/uL
  RBC: 641.4 x10_4/ul
  Ret: 7.9%
  WBC: 97.3 x10_2/uL
  KIDNEY_L: 0.9 g
  KIDNEY_R: 0.9 g
  KIDNEY_TOTAL: 1.9 g
  LIVER: 10.2 g
  A/G: 0.9
  ALP: 1382.4 IU/L
  ALT: 44.6 IU/L
  AST: 74 IU/L
  BUN: 14.4 mg/dL
  CRE: 0.2 mg/dL
  Ca: 10.9 mg/dL
  Cl: 105.4 meq/L
  DBIL: 0.008 mg/dL
  GLC: 170.8 mg/dL
  IP: 8.3 mg/dL
  K: 4.1 meq/L
  LDH: 57.8 IU/L
  Na: 142.6 meq/L
  PL: 140.8 mg/dL
  RALB: 2.6 g/dL
  TBIL: 0.056 mg/dL
  TC: 72.6 mg/dL
  TG: 76.2 mg/dL
  TP: 5.5 g/dL
  gamma-GTP: 1 IU/L
